“Also recorded” adds a separate entry of the source. Where two headings read alike, the source gives them in different places.
Tests used:
human CCL5 = molecular target: T1, human CCL5 (Homo sapiens, UniProt P13501); assay: Fluorescence anisotropy titration of 5(6)-Fam-labeled peptides by CCL5; assay type: binding; details: 100 nM 5(6)-Fam-labeled peptide, HEPES pH 7.4, 37 °C; for effect of CCL5 addition on fluorescence anisotropy / affinity in words: CCL5 up to 500 nM
T1 sequence (P13501 24-91): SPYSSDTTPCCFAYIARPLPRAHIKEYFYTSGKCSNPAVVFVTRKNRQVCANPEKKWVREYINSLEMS
From the text: To assess this hypothesis, two peptides taken from the Evasin-4 sequence were synthesized by Boc-based solid-phase peptide synthesis (Figs. S8 and S9). The first peptide, Ev4 Glu^14–Ala^23, comprises the Glu^14–Ala^23 residues of Evasin-4, whereas the second one, Ev4 Glu^14–Asn^31, includes the longer region Glu^14–Asn^31 (Fig. 4C). Cys^27 in the Ev4 Glu^14–Asn^31 was mutated to alanine to prevent oxidation and formation of intermolecular disulfide bonds. Affinity of obtained peptides to CCL5 was studied by fluorescence anisotropy using 100 nM of 5(6)-Fam–labeled peptides and human CCL5.
Fluorescence polarization assays were carried out using FluoroMax 4 fluorimeter (Horiba) equipped with FM4-2000 polarizers in 3-ml cuvettes. 100 nM solution of 5(6)-Fam–labeled peptides in HEPES buffer pH 7.4 were titrated by a 30 μM stock solution of CCL5 at 37 °C. Fluorescent signal was measured using 495 and 520 nm as excitation and emission wavelengths. The final titration curve is a result of three or four independent measurements.

[1] = system: CCL5-induced THP-1 cell migration; assay: THP-1 monocytic cell migration assay toward CCL5; assay type: cell-based, human; details: CCL5 0.5 µg/ml
Procedure: Human acute monocytic leukemia cell line (THP-1) monocytic cells were purchased from Leibniz-Institut DSMZ (ACC 16). The cells were cultured in RPMI 1640 GlutaMAX medium supplemented with 20 % fetal calf serum and 1 % penicillin/streptomycin (all Gibco ThermoFisher). The cells were cultured in a humidified atmosphere (5 % CO2, 95 % air, 37 °C) and routinely passed by splitting the cells (1:10) to fresh medium. The migration of monocytic cells toward chemoattractants was assessed in a 12-well chemotaxis chamber equipped with a 5-μm polycarbonate membrane (both Neuroprobe, Gaithersburg, MD, USA). Chemoattractants CCL5 (0.5 µg/ml) or CXCL4 (0.5 µg/ml) were preincubated with met–Evasin-4 (1 µg/ml) for 2 h at 37 °C subsequently added to the bottom well of the chemotaxis chamber. THP-1 monocytic cells (1 × 10^6/ml), suspended in RPMI 1640 GlutaMAX medium supplemented with 1 % fetal calf serum, were added in the upper wells and incubated for 90 min at 37 °C in a humidified atmosphere (5 % CO2, 95 % air). The nonmigrated cells were carefully removed, and the membrane was stained with Diff-Quick stain (Eberhard Lehmann GmbH, Berlin, Germany). Migrated cells were visualized by light microscopy, counted manually in five fields, and expressed as cells/mm^2.

E66S CCL5 = assay: NMR titration of 15N E66S CCL5 by Ev4 Glu14-Asn31; assay type: binding; details: 25 mM acetate
Procedure: In the case of E66S CCL5/Ev4 Glu^14–Asn^31 complex, 25 μM of ^15N E66S CCL5 in 25 mM acetate buffer, pH 4.5, was titrated by increasing concentrations of Ev4 Glu^14–Asn^31. For each concentration ^15N-^1H HSQC was recorded. Backbone resonance assignments were derived by following the shift of peak positions.

[2] = Solubility/precipitation observed in NMR and crystallization sample preparation
Procedure: For NMR sample preparation, lyophilized proteins were dissolved in 25 mM phosphate buffer (pH 6.8–7.1) or 25 mM sodium acetate-d^3 buffer (pH 4.5) containing 0.1 mM EDTA, 0.2 mM sodium azide, 5% (v/v) D2O for deuterium lock, at final concentration of 50 μM for m–t-Evasin-4 and 82, 20, and 1 μM for E66S CCL5. The samples were buffer exchanged four or five times by ultracentrifugation using prewashed Amicon Ultra-3000 3-kDa (Millipore, USA) ultracentrifugation filters. Final NMR samples were prepared in 3- or 5-mm NMR tubes, containing traces of DSS for chemical shift calibration. All NMR spectra were recorded using a Bruker Avance III HD 700 MHz spectrometer, equipped with a cryogenically cooled TCI probe at 37 °C. To make the complex, equimolar amounts of unlabeled met–Evasin-4 or E66S CCL5 were titrated to their [^15N,^13C]-enriched complement samples. For met–Evasin-4 and the two complexes, the solution pH of the NMR sample was carefully adjusted to pH 7.1 to ensure stable, nonprecipitating solutions.

CCL3 = details: cited from earlier work
From the text: Disruption of the chemokine signaling system is one of the crucial parts of ticks' strategy to evade immune responses. To neutralize chemokines, ticks secrete small cysteine-rich chemokine-binding proteins in their saliva with no homologues in mammals, termed Evasins ([6]). Evasins can be divided into two structurally unrelated C6 or C8 subfamilies embodying six and eight cysteines, respectively ([6]). […] In fact, the N terminus of C8-Evasins seems to play a crucial role in chemokine binding. For instance, replacement of the N terminus of Evasin-1 by that of P672, another C8-Evasin with different chemokine selectivity, produced a chim ...

CCL18 = details: cited from earlier work
From the text: (§1) Disruption of the chemokine signaling system is one of the crucial parts of ticks' strategy to evade immune responses. To neutralize chemokines, ticks secrete small cysteine-rich chemokine-binding proteins in their saliva with no homologues in mammals, termed Evasins ([6]). Evasins can be divided into two structurally unrelated C6 or C8 subfamilies embodying six and eight cysteines, respectively ([6]). […] Although several hundred of putative C6- and C8-Evasins have been identified in tic ...

CCL4 = details: cited from earlier work
From the text: as §1

[3] = NMR analysis of E66S CCL5 monomer/dimer equilibria; assay type: physicochemical; details: pH 4.5, 37 °C
Procedure: To study the structural determinants of E66S CCL5 involved in Evasin-4 binding, NMR spectra were recorded for the [^15N,^13C]E66S CCL5–Evasin-4 complex. Initial ^15N-^1H HSQC spectra of [^15N,^13C]E66S CCL5 were recorded at pH 4.5 and 37 °C at concentrations of 1 and 20 μM. […] This observation goes in line with the obtained crystal structure because the E66S CCL5 dimer interface is formed by interactions of the N terminus with the 30s loop and β3-strand.

[4] = physiological pH; cited from earlier work
Procedure: (§2) CCL5 can oligomerize, forming dimers and oligomers of a higher order ([16]), which would complicate analysis of Evasin-4 binding. […] To address this question, surface plasmon resonance (SPR) biosensor analysis was performed with biotinylated Eva ...

Evasin-4 = details: cited from earlier work
Procedure: as §2

H-EEEDDYTAYAPLTAYFTN-NH2 [Ev4 Glu^14–Asn^31, H2N-EEEDDYTAYAPLTAYFTN-CONH2]
effect of CCL5 addition on fluorescence anisotropy / affinity in words (human CCL5): dose-dependent increase of fluorescence anisotropy | affinity to CCL5 (human CCL5; fluorescence anisotropy): nanomolar affinity to CCL5; also recorded: binds CCL5 with nanomolar affinity | Kd (human CCL5; fluorescence anisotropy, titrated by 30 μM stock of CCL5, ex 495/em 520 nm, three or four independent measurements, read-out: apparent KD): 69 ± 12 nM | required inhibitory concentrations compared with full-length Evasin-4 ([1]; CCL5-induced THP-1 migration, compared with full-length protein): the required concentrations were higher compared with the full-length protein | concentration at which full inhibition of CCL5-induced THP-1 migration was reached ([1]; full inhibition only at this concentration, 1 × 10^6 cells/ml, 90 min, 37 °C): 10 µM | inhibition of CCL5-induced THP-1 migration ([1]; increasing concentrations of Ev4 Glu14-Asn31, 1 × 10^6 cells/ml, 90 min, 37 °C): dose-dependent inhibition of CCL5-induced THP-1 cell migration; also recorded: effectively inhibits CCL5-induced monocyte migration; also recorded: blocks CCL5-induced monocyte migration | effect of peptide titration on E66S CCL5 signals (E66S CCL5; 25 μM [15N]E66S CCL5, increasing concentrations of peptide, pH 4.5): binds the CCL5 monomer; also recorded: gradual shift of signals of monomeric E66S CCL5 and decrease of signal intensity for the dimeric form; also recorded: only CCL5 monomer signals are affected upon binding | most perturbed residues of E66S CCL5 by peptide binding (E66S CCL5; 25 μM [15N]E66S CCL5 monomer form, before and after 500 μM Ev4 Glu14-Asn31, pH 4.5, 37 °C): N-loop (Phe^12–Arg^21 and His^23) and in the β3-strand (Gln^48 and Cys^50) | solubility of peptide ([2]; low pH values, negatively charged residues): poorly soluble at low pH values | solubility of complex with E66S CCL5 ([2]; peptide/E66S CCL5 complex compared with E66S CCL5-Evasin-4 complex): more soluble compared with the E66S CCL5–Evasin-4 complex

H-EEEDDYTAYA-NH2 [Ev4 Glu^14–Ala^23, peptide comprising the Glu14–Ala23 residues of Evasin-4]
effect of CCL5 addition on fluorescence anisotropy / affinity in words (human CCL5): no effect even at concentration of 500 nM | affinity to CCL5 (human CCL5; fluorescence anisotropy): no affinity to CCL5

B1: Evasin-1: 94–amino acid protein from the C8 subfamily, from Rhipicephalus sanguineus (protein, UniProt P0C8E7 21-114, looked up)
Evasin-1: EDDEDYGDLGGCPFLVAENKTGYPTIVACKQDCNGTTETAPNGTRCFSIGDEGLRRMTANLPYDCPLGQCSNGDCIPKETYEVCYRRNWRDKKN
affinity in words (CCL3): high-affinity binder | affinity in words (CCL18): high-affinity binder | affinity in words (CCL4): high-affinity binder

B2: E66S CCL5: CCL5 mutant that mainly forms dimers at physiological pH (protein, UniProt P13501 24-91, looked up, variant E66S)
C-C motif chemokine 5: SPYSSDTTPCCFAYIARPLPRAHIKEYFYTSGKCSNPAVVFVTRKNRQVCANPEKKWVREYINSLSMS
oligomeric form ([3]; 1 μM E66S CCL5, 15N-1H HSQC): monomeric form | oligomeric form ([3]; 20 μM E66S CCL5, 15N-1H HSQC, two sets of signals): monomeric and dimeric form | oligomeric form [4]: mainly forms dimers

B3: E66A CCL5: CCL5 mutant with deficiency in oligomerization (ref 25) (protein, UniProt P13501 24-91, looked up, variant E66A)
C-C motif chemokine 5: SPYSSDTTPCCFAYIARPLPRAHIKEYFYTSGKCSNPAVVFVTRKNRQVCANPEKKWVREYINSLAMS
oligomerization and Evasin-4 inhibition potency (Evasin-4): deficiency in oligomerization without disturbing Evasin-4 inhibition potency

B4: CCL5: chemokine CC-motif ligand 5, also known as RANTES (protein, UniProt P13501 24-91, looked up)
C-C motif chemokine 5: SPYSSDTTPCCFAYIARPLPRAHIKEYFYTSGKCSNPAVVFVTRKNRQVCANPEKKWVREYINSLEMS
induction of THP-1 migration ([1]; compared with control in the absence of chemoattractants, 90 min, 37 °C): induced significant migration of THP-1 cells

Reference: publication PMC7573271, “Structural characterization of anti-CCL5 activity of the tick salivary protein evasin-4” (The Journal of Biological Chemistry, 2020)
